ChEMBL document CHEMBL1150861, “Triterpene saponins from Tupidanthus calyptratus” (J Nat Prod, 2001)
Activity calls are given as the source filed them. The calls are words filed in the database; no cut-off is given here.

Legend:
[1] = system: HEK293; assay: Antiproliferative activity against HEK293 cells […] after 72 hrs by MTT assay; type: cell-based; details: human, hek293, 72 h
[2] = system: J774; assay: Antiproliferative activity against mouse J774 cells […] after 72 hrs by MTT assay; type: functional, cell-based
[3] = system: WEHI-164; assay: Antiproliferative activity against mouse WEHI164 cells […] after 72 hrs by MTT assay; type: functional, cell-based

## C[C@@H]1O[C@@H](OC[C@H]2O[C@@H](OC(=O)[C@]34CC[C@](C)(O)[C@H](C)[C@H]3C3=CC[C@@H]5[C@@]6(C)CC[C@H](O[C@@H]7OC[C@H](O)[C@H](O[C@@H]8OC[C@@H](O)[C@H](O)[C@H]8O)[C@H]7O)[C@@](C)(CO)[C@@H]6CC[C@@]5(C)[C@]3(C)CC4)[C@H](O)[C@@H](O)[C@@H]2O)[C@H](O)[C@H](O)[C@H]1O
[1]
  Activity: Not Active
[2]
  Activity: inactive
[3]
  Activity: inactive

## C[C@@H]1[C@H]2C3=CC[C@@H]4[C@@]5(C)C[C@@H](O)[C@H](O[C@@H]6OC[C@H](O)[C@H](O)[C@H]6O)[C@@](C)(CO)[C@@H]5CC[C@@]4(C)[C@]3(C)CC[C@@]2(C(=O)O[C@@H]2O[C@H](CO)[C@@H](O)[C@H](O)[C@H]2O)CC[C@]1(C)O
[1]
  Activity: Not Active
[2]
  Activity: inactive
[3]
  Activity: inactive

## C[C@@H]1[C@H]2C3=CC[C@@H]4[C@@]5(C)C[C@@H](O)[C@H](O[C@@H]6OC[C@H](O)[C@H](O[C@@H]7OC[C@@H](O)[C@H](O)[C@H]7O)[C@H]6O)[C@@](C)(CO)[C@@H]5CC[C@@]4(C)[C@]3(C)CC[C@@]2(C(=O)O[C@@H]2O[C@H](CO)[C@@H](O)[C@H](O)[C@H]2O)CC[C@]1(C)O
[1]
  Activity: Not Active
[2]
  Activity: inactive
[3]
  Activity: inactive

## C[C@@H]1[C@H]2C3=CC[C@@H]4[C@@]5(C)C[C@@H](O)[C@H](O[C@@H]6OC[C@H](O)[C@H](O[C@@H]7OC[C@@H](O)[C@H](O)[C@H]7O)[C@H]6O)[C@@](C)(CO)[C@@H]5CC[C@@]4(C)[C@]3(C)CC[C@@]2(C(=O)O[C@@H]2O[C@H](CO[C@@H]3O[C@H](CO)[C@@H](O)[C@H](O)[C@H]3O)[C@@H](O)[C@H](O)[C@H]2O)CC[C@]1(C)O
[1]
  Activity: Not Active
[2]
  Activity: inactive
[3]
  Activity: inactive
